Series [1] in a line: octanol/water partition coefficient logKo/w. It counts as physicochemical. The following applies: 32° C., HPLC of each layer. The procedure:
In the present invention, logKo/w is determined in the following manner. First, a drug is dissolved in a suitable amount of octanol (or water) at 32° C. followed by the further addition of an equal amount of water (or octanol) and mixing well. After the mixture divides into two layers, the concentration of drug in each layer is measured by HPLC and logKo/w is determined using the equation below. LogKo/w=log(drug concentration in octanol phase/drug concentration in aqueous phase)

The conditions of series [2]: from the interview form provided with 125 mg Lamisil Tablets; cited from earlier work.

Among the data in patent US20090203797A1, “Antimycotic Patch” (priority 2007, published 2009) are logP and logKo/w value values, retold here.

SMILES strings stand for the structures. Structures can show the parent of a compound that is named as a salt.

Take `CN(C/C=C/C#CC(C)(C)C)Cc1cccc2ccccc12` [terbinafine-base]: the logP in series [1] was 5.8. `CN(C/C=C/C#CC(C)(C)C)Cc1cccc2ccccc12` [terbinafine hydrochloride]: the logKo/w value in series [2] was 0.87.
